From patent US20070105792A1, “Administration Of DNA Methylation Inhibitors For Treating Epigenetic Diseases” (priority 2005, published 2007)
Marks after values point to notes of the source that are not given here.

How the values were obtained:
adult patients with MDS [1] = assay: Randomized open-label controlled clinical study of decitabine plus supportive care in MDS patients; assay type: in vivo, human
Source text: A randomized open-label, controlled clinical study at 23 sites evaluated 170 adult patients with MDS meeting French-American-British (FAB) classification and International Prognostic Scoring System (IPSS) High-Risk, Intermediate-2 and Intermediate-1 prognostic scores.
Eighty-nine patients were randomized to decitabine therapy plus supportive care (only 83 received drug), and 81 to Supportive Care (SC) alone. Patients with Acute Myeloid Leukemia (AML) were not intended to be included.
Decitabine was supplied as a lyophilized powder, 50 mg in 20 mL vials, for reconstitution and injection. Decitabine was reconstituted with 10 mL of Sterile Water for Injection USP to yield a solution of 5 mg/mL decitabine and 6.8 mg/mL KH2PO4. The reconstituted solution was further diluted for intravenous infusion with prechilled (2-8° C.) 0.9% Sodium Chloride solution USP. To slow degradation of study drug, infusion solution was refrigerated at 2-8° C. until administration, for a maximum of 10 hours.
Patients randomized to the decitabine arm received decitabine intravenously infused at a dose of 15 mg/m^2 over a three-hour period, every eight hours, for 3 consecutive days (1 cycle). Each administration of decitabine at a dose of 15 mg/m^2 infused over a three-hour period was a continuous infusion without changing the infusion bag. The total amount of decitabine per day was 45 mg/m^2; the total dose per cycle was 135 mg/m^2. […] For patients with inadequate counts 6 weeks after treatment, the study protocol specified that blood counts be repeated at least weekly during the following two-week interval, and that a reduced-dose cycle (11 mg/m^2 over a three-hour period, every eight hours, for 3 consecutive days) was to be administered if blood counts recovered to within acceptable limits (as defined above) between week 6 and 8.
Delayed myelotoxicity, with a neutrophil nadir reached between about day 18-24, is the primary toxicity of decitabine. Cytopenias, however, are also a hallmark of the MDS disease process, making it difficult to distinguish between treatment-related neutropenia and disease progression. Accordingly, the protocol required that patients showing persistent neutropenia (ANC <1,000/μL) or thrombocytopenia (platelets <50,000/μL) beyond 8 weeks following a decitabine cycle undergo bone marrow aspiration and biopsy. Upon a finding of no disease progression (i.e. only bone marrow aplasia), blood counts were to be monitored for an additional two weeks, and a reduced-dose cycle (as defined above) was to be administered if blood counts recovered to within acceptable limits (as defined above) during weeks 8-10. Patients showing neutropenia or thrombocytopenia beyond 10 weeks were to receive no further decitabine treatment.
Supportive care consisted of blood and blood product transfusions, prophylactic antibiotics, and hematopoietic growth factors. Co-primary endpoints of the study were overall response rate (CR+PR) and time to AML or death. Responses were classified with the MDS International Working Group (IWG) criteria; patients were required to be RBC and platelet transfusion independent during the time of response.

adult patients with MDS [2] = conditions: about; after a decitabine cycle; cited from earlier work
cytidine deaminases = conditions: enzymatic degradation by cytidine deaminases, particularly in the small intestine; cited from earlier work
[3] = ITT, N = 89, 15 mg/m^2 3 hr iv infusion every 8 hrs for 3 days
[4] = ITT, N = 89, listed as decitabine
[5] = patients evaluable for response (confirmed MDS at baseline, at least 2 courses)
[6] = patients with adjudicated baseline diagnosis of AML
[7] = patients with cytogenetic abnormalities, MDS IWG criteria

Compound: Nc1ncn([C@H]2C[C@H](O)[C@@H](CO)O2)c(=O)n1 [Decitabine, 5-aza-2′-deoxycytidine]
- Response by IPSS Classification (CR + PR) (adult patients with MDS [1]; High Risk): (13%)
- Response by IPSS Classification (CR + PR), responders/patients (adult patients with MDS [1]; High Risk): 3/23
- Median Duration of (CR + PR + HI) response (adult patients with MDS [1]; ITT): 253 days
- Median time to (CR + PR + HI) response (adult patients with MDS [1]; ITT): 44 days
- Complete Response (CR) (adult patients with MDS [1]; ITT, N = 89): (9%)
- Complete Response (CR), number of patients (adult patients with MDS [1]; ITT, N = 89): 8
- Hematologic Improvement (HI) (adult patients with MDS [1]; ITT, N = 89): (12%)
- Hematologic Improvement (HI), number of patients (adult patients with MDS [1]; ITT, N = 89): 11
- Overall Improvement Rate (CR + PR + HI) (adult patients with MDS [1]; ITT, N = 89): (29%)**
- Overall Improvement Rate (CR + PR + HI), number of patients (adult patients with MDS [1]; ITT, N = 89): 26
- Partial Response (PR) (adult patients with MDS [1]; ITT, N = 89): (8%)
- Partial Response (PR), number of patients (adult patients with MDS [1]; ITT, N = 89): 7
- Overall Response Rate (CR + PR) (adult patients with MDS [1]; [3]): 17%
- Overall Response Rate (CR + PR), number of patients (adult patients with MDS [1]; [3]): 15
- Hematologic Improvement (HI) (adult patients with MDS [1]; [4]): 12%
- Overall Improvement Rate (CR + PR + HI) (adult patients with MDS [1]; [4]): 29%
- Response by IPSS Classification (CR + PR) (adult patients with MDS [1]; Int-1): (14%)
- Response by IPSS Classification (CR + PR), responders/patients (adult patients with MDS [1]; Int-1): 4/28
- Response by IPSS Classification (CR + PR) (adult patients with MDS [1]; Int-2): (21%)
- Response by IPSS Classification (CR + PR), responders/patients (adult patients with MDS [1]; Int-2): 8/38
- Patients who became transfusion independent (adult patients with MDS [1]; RBC transfusion dependent at baseline): 39%
- RBC and platelet transfusion status of responders (adult patients with MDS [1]; all 15 responders, in the absence of growth factors): remained or became RBC and platelet transfusion independent
- Quality of Life assessment (EORTC scale) (adult patients with MDS [1]; baseline, end of each treatment cycle and post-treatment): less dyspnea, less fatigue and better physical functioning and global health status
- Median time to AML or death (adult patients with MDS [1]; decitabine arm, p=0.160, ns vs SC): 340 days
- Cycle by which all responders had responded (adult patients with MDS [1]; decitabine patients who responded): by the fourth cycle
- Median Duration of (CR + PR) response (adult patients with MDS [1]; decitabine responders): 266 days
- Median time to (CR + PR) response (adult patients with MDS [1]; decitabine responders): 89 days
- Overall response rate (adult patients with MDS [1]; [5]): 21%
- Overall response rate, responders/patients (adult patients with MDS [1]; [5]): 12/56
- Objective response (CR or PR) (adult patients with MDS [1]; [6]): 56%
- Objective response (CR or PR), responders/patients (adult patients with MDS [1]; [6]): 5/9
- Major cytogenetic responses (adult patients with MDS [1]; [7]): 21%
- Major cytogenetic responses, responders/patients (adult patients with MDS [1]; [7]): 10/48
- Minor cytogenetic response, number of patients (adult patients with MDS [1]; [7]): one
- Patients who became transfusion dependent (adult patients with MDS [1]; transfusion independent at baseline): 15%
- Neutrophil nadir (delayed myelotoxicity, primary toxicity) (adult patients with MDS [2]): 18 to 24 days
- Oral bioavailability (cytidine deaminases): reduced oral bioavailability
